The source of these data is US20060128726A1, “Process for preparing novel crystalline forms of (2S)-1-[[(7R)-7-(3,4-dichlorophenyl)-4,7-dihydro-5-methylpyrazolo[1,5]pyrimidine-6-yl]carbonyl]-2-(4-fluorophenyl)pyrrolidine, novel stable forms produced therein and formulations” (priority 2004, published 2006).

In brackets after ≈: the same amount, converted by molar mass.

Series [1] is described as follows: slurry conversion of polymorph mixtures (relative thermodynamic stability). Type of series: physicochemical. As to conditions: mixtures of H2-1 and H2-2 in aqueous ethanol slurries; conversion observed at 5, 25, 50 and 80° C.
The nature of series [2]: aqueous solubility. The class given is physicochemical. The following applies: water; depending on crystalline form.
Series [3] can be described thus: solid-state stability (light, heat, physical and chemical). The class given is physicochemical.
For series [4], the target named is ultrarapidly activating, sustained potassium current (IKur, also known as Kv1.5) (Homo sapiens, UniProt P22460). The following applies: cited from earlier work.
The nature of series [5]: hygroscopicity. Type of series: physicochemical.
A short description of series [6]: oral bioavailability. As to conditions: in vivo.

Chain of ultrarapidly activating, sustained potassium current (IKur, also known as Kv1.5) (P22460 whole entry): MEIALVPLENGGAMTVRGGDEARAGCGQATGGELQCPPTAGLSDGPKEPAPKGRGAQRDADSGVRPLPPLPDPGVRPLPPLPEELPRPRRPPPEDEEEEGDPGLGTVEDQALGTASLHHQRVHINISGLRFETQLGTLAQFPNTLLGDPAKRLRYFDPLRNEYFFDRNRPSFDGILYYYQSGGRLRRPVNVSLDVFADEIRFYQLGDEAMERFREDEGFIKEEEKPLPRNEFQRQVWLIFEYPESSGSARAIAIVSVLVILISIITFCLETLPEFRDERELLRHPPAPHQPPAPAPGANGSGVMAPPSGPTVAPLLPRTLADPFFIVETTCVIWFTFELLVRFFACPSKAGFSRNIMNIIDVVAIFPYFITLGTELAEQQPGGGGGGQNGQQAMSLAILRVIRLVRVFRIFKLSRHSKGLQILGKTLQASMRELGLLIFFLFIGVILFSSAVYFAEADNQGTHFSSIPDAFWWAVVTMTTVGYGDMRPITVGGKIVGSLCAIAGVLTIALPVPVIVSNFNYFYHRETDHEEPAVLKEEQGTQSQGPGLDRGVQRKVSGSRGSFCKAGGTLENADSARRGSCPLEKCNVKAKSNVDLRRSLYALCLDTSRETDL

As for `CC1=C(C(=O)N2CCC[C@H]2c2ccc(F)cc2)[C@@H](c2ccc(Cl)c(Cl)c2)n2nccc2N1` [H2-2 dihydrate], in series [1], the “relative thermodynamic stability of polymorphs” value is recorded as “thermodynamically more stable than the H2-1 dihydrate”.

Compound `CC1=C(C(=O)N2CCC[C@H]2c2ccc(F)cc2)[C@@H](c2ccc(Cl)c(Cl)c2)n2nccc2N1` [IKur compound, (2S)-1-[[(7R)-(3,4-dichlorophenyl)-4,7-dihydro-5-methylpyrazolo[1,5-]pyrimidine-6-yl]carbonyl]-2-(4-fluorophenyl)pyrrolidine] had a solubility in series [2] of 2 to 4 µg/mL (≈ 4.24 to 8.49 µM). Besides, the “sensitivity to light and heat” value in series [3] (amorphous form and crystalline forms) was “sensitive to light and heat”. The “blocking of IKur (Kv1.5)” value in series [4] was “selective blocker”.

Consider `CC1=C(C(=O)N2CCC[C@H]2c2ccc(F)cc2)[C@@H](c2ccc(Cl)c(Cl)c2)n2nccc2N1` [N-3 anhydrate], for which the “solid-state stability (physical and chemical)” value in series [3] is reported as “satisfactory solid-state stability”. For the same compound, the hygroscopicity entry in series [5] was “low hygroscopicity”. In series [6], the oral bioavailability entry was “satisfactory oral bioavailability”.

In general, solubility refers to the dissolved amount per volume that the medium holds. Read a high solubility as a readily soluble substance.
